The values below come from patent US11008313B2, “Substituted 1-methyl-1,2,3,4-tetrahydroisoquinoline molecules as PCSK9 allosteric binders” (Merck Sharp & Dohme Corp., priority 2016, dated 2021).

Where two headings read alike, the source gives them in different places.

Experiment [1] has as its target T1, HEK293 cells stably overexpressing PCSK9 (Homo sapiens, UniProt Q8NBP7).
T1 construct: expressed in transfected cells
Put plainly: Protein degradation assay (Western Blot/Sally Sue assay). To be noted: 24 hrs compound treatment, serum free DMEM. In kind it is cell-based. As for the experimental part:
Samples were run on the Sally Simple Western system from ProteinSimple (San Jose, Calif.) using default assay conditions. Briefly, 5×10^4 HEK293 cells stably overexpressing PCSK9 were seeded into Collagen I coated 96 well plates and allowed to recover overnight at 37° C. with 5% CO2. After 24 hrs of compound treatment in serum free DMEM cell culture medium, cells were washed with PBS and lysed in 100 ul RIPA buffer (Teknova) supplemented with protease inhibitors and subsequently mixed with fluorescent standards as per manufacturer's specifications, followed by denaturation at 95° C. for 5 minutes. Anti-PCSK9 mAb antibody (Abbomax, Cat. No. 601-650) was used for PCSK9 detection. The reported DC50 values represent the effective concentration of compound to lower PCSK9 protein levels, pro and mature, by 50%.
For orientation: A western blot detects proteins with antibodies after separation by electrophoresis.

The target in the next experiment is PCSK9 (Homo sapiens, UniProt Q8NBP7). Put plainly: Fluorescence polarization competition binding assay (probe: compound of Example 57). To be noted: 2 μM PCSK9, 50 nM compound of Example 57 as probe, overnight incubation; read-out: FP IC. In outline:
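Competition fluorescence-polarization binding: 2 μM PCSK9 with 50 nM fluorescent probe in 20 mM HEPES pH 7.5, 150 mM NaCl, 1 mM CaCl2, 0.005% P-20, incubated with test compound overnight in the dark. Anisotropy read; % inhibition relative to DMSO wells and probe-without-PCSK9 wells.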
In general terms: Polarisation of emitted light reports the rotation of a fluorescent probe.

The mark [2] stands for this setting: mature PCSK9 protein level lowered by 50%.
Setting [3] is: pro PCSK9 protein level lowered by 50%.

PCSK9, sequence (Q8NBP7 153-692): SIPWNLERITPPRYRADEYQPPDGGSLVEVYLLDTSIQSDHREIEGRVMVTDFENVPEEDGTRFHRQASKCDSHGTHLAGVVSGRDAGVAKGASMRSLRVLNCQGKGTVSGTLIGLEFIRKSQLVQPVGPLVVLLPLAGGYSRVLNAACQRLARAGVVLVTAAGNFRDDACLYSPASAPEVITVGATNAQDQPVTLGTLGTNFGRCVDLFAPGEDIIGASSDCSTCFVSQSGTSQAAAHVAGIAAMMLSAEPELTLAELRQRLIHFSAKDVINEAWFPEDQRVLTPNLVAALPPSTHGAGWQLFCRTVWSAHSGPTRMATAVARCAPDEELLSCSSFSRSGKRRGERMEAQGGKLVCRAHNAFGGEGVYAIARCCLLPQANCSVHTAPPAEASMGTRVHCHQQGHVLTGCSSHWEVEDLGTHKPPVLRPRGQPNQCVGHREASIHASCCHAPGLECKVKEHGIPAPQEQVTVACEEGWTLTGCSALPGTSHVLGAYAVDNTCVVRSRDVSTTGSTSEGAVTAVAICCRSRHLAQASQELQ

Consider `Cc1ncsc1-c1ccc(CNC(=O)[C@@H]2C[C@@H](O)CN2C(=O)[C@@H](NC(=O)COCCOCC(=O)NCCOCCOc2cc3c(cc2Oc2ccc(-c4ccc(C(=O)O)cc4)c(F)c2)[C@@](C)(CC(=O)Nc2nccs2)NCC3)C(C)(C)C)cc1` [Example 102, 2′-fluoro-4′-(((R)-6-(((S)-16-((2S,4R)-4-hydroxy-2-((4-(4-methylthiazol-5-yl)benzyl)carbamoyl)pyrrolidine-1-carbonyl)-17,17-dimethyl-7,14-dioxo-3,9,12-trioxa-6,15-diazaoctadecyl)oxy)-1-methyl-1-(2-oxo-2-(thiazol-2-ylamino)ethyl)-1,2,3,4-tetrahydroisoquinolin-7-yl)oxy)-[1,1′-biphenyl]-4-carboxylic acid], for which, in experiment [1] (setting [2]), the “PCSK9 DC50 (Mature) μM” value is “inactive”. Also, in experiment [1] (setting [3]), the “PCSK9 DC50 (Pro) μM” value is “Inactive”. Moreover, the IC50 at PCSK9 came out at 162 nM.
As for `COCCOc1cc2c(cc1Oc1ccc(-c3ccc(C(=O)O)cc3)c(F)c1)[C@@](C)(CC(=O)Nc1nccs1)NCC2` [Example 101, (R)-2′-fluoro-4′-((6-(2-methoxyethoxy)-1-methyl-1-(2-oxo-2-(thiazol-2-ylamino)ethyl)-1,2,3,4-tetrahydroisoquinolin-7-yl)oxy)-[1,1′-biphenyl]-4-carboxylic acid], the “PCSK9 DC50 (Mature) μM” value in experiment [1] (setting [2]) is “inactive”. Moreover, the “PCSK9 DC50 (Pro) μM” value in experiment [1] (setting [3]) is given as “Inactive”. Besides, at PCSK9, the IC50 is 130 nM.
On the same counts, the results for `CC(C)Cc1ccc([C@H](C)C(=O)NCCOCCOc2cc3c(cc2Oc2ccc(-c4ccc(C(=O)O)cc4)c(F)c2)[C@@](C)(CC(=O)Nc2nccs2)NCC3)cc1` [Example 108] are “inactive”, “Inactive” and 578 nM.
Usually DC50 stands for the concentration giving 50% degradation. Regarding `CC(C)(C)OC(=O)/N=C(/NCCC[C@H](NC(=O)OC(C)(C)C)C(=O)NCCOCCOCCOCCOc1cc2c(cc1Oc1ccc(-c3ccc(C(=O)O)cc3)c(F)c1)[C@@](C)(CC(=O)Nc1nccs1)NCC2)NC(=O)OC(C)(C)C` [Example 99, 4′-(((R)-6-(((S,Z)-6,11-bis((tert-butoxycarbonyl)amino)-2,2-dimethyl-4,12-dioxo-3,16,19,22-tetraoxa-5,7,13-triazatetracos-5-en-24-yl)oxy)-1-methyl-1-(2-oxo-2-(thiazol-2-ylamino)ethyl)-1,2,3,4-tetrahydroisoquinolin-7-yl)oxy)-2′-fluoro-[1,1′-biphenyl]-4-carboxylic acid], the 50% degradation concentration (DC50) in experiment [1] (mature PCSK9 protein level lowered by 50%, read-out: PCSK9 DC50 (Mature)) amounted to 9000 nM; in experiment [1] (pro PCSK9 protein level lowered by 50%, read-out: PCSK9 DC50 (Pro)) it was 1370 nM. Besides, on PCSK9, the IC50 came out at 718 nM.
